# From PMC8224697 (Marine Drugs, 2021)
# “Also recorded” adds a separate entry of the source. Where two headings read alike, the source gives them in different places.
# How the values were obtained:
# [1] = molecular target: T1, recombinant ICL cloned from C. albicans ATCC10231 (Candida albicans, UniProt Q9P8Q7); experiment: ICL inhibition assay (glyoxylate phenylhydrazone formation, A324 nm); assay type: biochemical; conditions: for IC50: purified recombinant ICL, n = 3
# T1 construct: made in house
# T1 sequence (Q9P8Q7 whole entry): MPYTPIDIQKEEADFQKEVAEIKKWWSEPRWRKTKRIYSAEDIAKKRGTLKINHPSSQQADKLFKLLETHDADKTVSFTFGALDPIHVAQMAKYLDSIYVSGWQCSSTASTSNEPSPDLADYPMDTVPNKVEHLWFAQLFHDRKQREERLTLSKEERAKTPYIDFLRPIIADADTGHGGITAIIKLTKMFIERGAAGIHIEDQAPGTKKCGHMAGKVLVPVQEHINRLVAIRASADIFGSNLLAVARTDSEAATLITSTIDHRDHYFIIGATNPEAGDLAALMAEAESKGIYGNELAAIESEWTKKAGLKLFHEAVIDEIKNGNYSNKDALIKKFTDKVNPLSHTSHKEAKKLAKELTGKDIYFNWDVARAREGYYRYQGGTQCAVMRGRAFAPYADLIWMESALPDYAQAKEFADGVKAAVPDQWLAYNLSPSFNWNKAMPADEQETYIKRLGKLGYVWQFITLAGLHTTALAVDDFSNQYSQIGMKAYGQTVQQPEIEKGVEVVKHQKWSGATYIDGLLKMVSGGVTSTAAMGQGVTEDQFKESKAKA
# Procedure: The preparation of recombinant ICL cloned from C. albicans ATCC10231 was performed as described previously. The inhibitory activities of secoemestrin C (1), dethiosecoemestrin (2), emestrin (3), and emestrin B (4) against purified recombinant ICL were evaluated according to a previously documented procedure. The production of ICL-catalyzed glyoxylate phenylhydrazone from phenylhydrazine and isocitrate was measured using a spectrophotometer at an absorbance wavelength of 324 nm.
# The preparation of the recombinant ICL protein from C. albicans ATCC10231 was performed as described in a previous paper. We used the two synthetic primers IC-1 (5′-[…]-3′) and IC-2 (5′-[…] […]-3′) to perform a PCR amplification of ICL. The ICL inhibitory activity of the test compounds were evaluated according to a previously described method. The ICL-catalyzed formation of glyoxylate phenylhydrazone from isocitrate and phenylhydrazine substrates was measured using a spectrophotometer at an absorbance wavelength of 324 nm. The inhibitory activity of the test compound was calculated relative to that of the DMSO control (n = 3). We used 3-nitropropionate as a positive control.
# [2] = tested on: C. albicans SC5314; experiment: In vitro growth assay (MIC) in YNB broth; assay type: cell-based, Candida albicans; conditions: 28 °C
# From the text: (§1) Following phagocytosis by macrophages, C. albicans undergoes a metabolic shift from glycolysis to the glyoxylate cycle, enabling cells to utilize C2 carbon sources. Therefore, we hypothesized that the ICL inhibitor reduces nutrient uptake capacity and impedes the survival of C. albicans within macrophages.
# (§2) The ICL gene was cloned from C. albicans strain ATCC10231 genomic DNA. C. albicans SC5314 (ATCC MYA-2876) (wild type), MRC10 (Δicl) (ICL-deletion mutant), MRC11 (Δicl + ICL) (ICL-complemented mutant), […], ATCC18804, and ATCC11006 were used for the growth assay. The ICL-deletion mutant strains MRC10 and MRC11 were kindly provided by Prof. Michael C. Lorenz (The University of Texas Health Science Center at Houston). Each strain was subcultured in YNB broth (Difco Laboratories, Detroit, MI, USA) supplemented with 2% glucose at 28 °C. For the ICL inhibitor addition, isolated compounds dissolved in DMSO were added to a final solvent concentration of 0.5% in all growth assays.
# (§3) The antifungal activity of secoemestrin C (1), dethiosecoemestrin (2), emestrin (3), and emestrin B (4) was evaluated against C. albicans strains (SC5314, ATCC10231, ATCC10259, ATCC11006, and ATCC18804) using a previously documented procedure. The growth of C. albicans was monitored in YNB broth with glucose or potassium acetate as the carbon source. The plates were incubated at 28 °C for 3 days. […] Amphotericin B, an antifungal agent, was applied as a positive control.
# [3] = tested on: C. albicans ATCC10231; experiment: microbe, parasite or virus in culture; assay type: cell-based, Candida albicans
# From the text: as §2, §3
# [4] = tested on: C. albicans ATCC10259; experiment: In vitro growth assay (MIC) in YNB broth; assay type: cell-based; conditions: Candida albicans, ATCC10259, 72 h, 28 °C
# From the text: as §1, §2, §3
# [5] = tested on: C. albicans ATCC11006; experiment: In vitro growth assay (MIC) in YNB broth; assay type: cell-based; conditions: Candida albicans, ATCC11006, 72 h, 28 °C
# From the text: as §1, §2, §3
# [6] = tested on: C. albicans ATCC18804; experiment: In vitro growth assay (MIC) in YNB broth; assay type: cell-based; conditions: Candida albicans, ATCC18804, 72 h, 28 °C
# From the text: as §1, §2, §3
# [7] = tested on: C. albicans strains (SC5314, ATCC10231, ATCC10259, ATCC11006, and ATCC18804); experiment: In vitro growth assay (MIC), summary over the strain panel; assay type: cell-based; conditions: Candida albicans; C. albicans growing on acetate, over five strains
# Procedure: as §1, §3
# [8] = tested on: C. albicans strains SC5314 (wild type), MRC10 (Δicl), and MRC11 (Δicl + ICL); experiment: Growth phenotype analysis on YNB agar plates; assay type: cell-based, Candida albicans; conditions: 2 days, 28 °C
# Procedure: To determine the effects of secoemestrin C (1) on C. albicans growth under C2–assimilating conditions, phenotypic analyses of ICL-deletion mutants were also performed using C. albicans strains SC5314 (wild type), MRC10 (Δicl), and MRC11 (Δicl + ICL). After pre-culture, each strain was streaked onto YNB agar plates supplemented with glucose or potassium acetate with or without 64 μg/mL secoemestrin C (1).
# Figure 3 Inhibitory activity of secoemestrin C (1) toward the growth and ICL mRNA expression of C. albicans. (a) C. albicans strains SC5314 (wild-type), MRC10 (Δicl), and MRC11 (Δicl + ICL) were cultured on YNB agar plates containing 2% glucose or 2% potassium acetate as a carbon source with or without 64 μg/mL secoemestrin C (1) for 2 days at 28 °C. […] ICL mRNA expression was analyzed by RT-PCR. Glyceraldehyde-3-phosphate dehydrogenase (GPDH), a housekeeping gene, was measured as a loading control.
# (§4) Growth phenotype and ICL expression analysis were performed using C. albicans strains SC5314 (wild type), MRC10 (Δicl), and MRC11 (Δicl + ICL) according to a previously described method. […] Semi-quantitative RT-PCR was conducted using ICL-specific primers: 5′-[…]-3′ (forward) and 5′-TAGATTCAGCTTCA GCCATCAAAGC-3′ (reverse). The expression of the housekeeping gene glyceraldehyde-3-phosphate dehydrogenase (GPDH) was measured as a loading control.
# [9] = tested on: ICL mRNA expression in C. albicans; experiment: ICL mRNA expression by semi-quantitative RT-PCR; assay type: cell-based, Candida albicans; conditions: cells grown in 2% acetate with 16, 32, or 64 μg/mL compound; 4 h, 28 °C; SC5314 and MRC11
# Procedure: Figure 3 Inhibitory activity of secoemestrin C (1) toward the growth and ICL mRNA expression of C. albicans. (a) C. albicans strains SC5314 (wild-type), MRC10 (Δicl), and MRC11 (Δicl + ICL) were cultured on YNB agar plates containing 2% glucose or 2% potassium acetate as a carbon source with or without 64 μg/mL secoemestrin C (1) for 2 days at 28 °C. (b) Strains were grown in YNB broth containing 2% glucose, collected by centrifugation, and transferred to YNB containing 2% glucose (Glu), 2% potassium acetate (Ace), or 2% Ace + secoemestrin C (1) (16, 32, or 64 μg/mL) and cultured for 4 h at 28 °C. ICL mRNA expression was analyzed by RT-PCR. Glyceraldehyde-3-phosphate dehydrogenase (GPDH), a housekeeping gene, was measured as a loading control.
# We further investigated the effects of secoemestrin C (1) on ICL mRNA expression in C. albicans using a semi-quantitative reverse-transcription polymerase chain reaction (RT-PCR). […] GPDH expression was detected in all treatment conditions.
# as §4, with “The expression of the housekeeping gene glyceraldehyde-3-phosphate dehydrogenase (GPDH) was measured as a loading control.” left out
# [10] = Candida albicans, SC5314, 72 h, YNB with 2% glucose, read-out: MIC
# [11] = Candida albicans, SC5314, 72 h, YNB with 2% potassium acetate, read-out: MIC
# [12] = Candida albicans, ATCC10231, 72 h, ATCC10231, YNB with 2% glucose, 72 h, 28 °C, read-out: MIC
# [13] = Candida albicans, ATCC10231, 72 h, ATCC10231, YNB with 2% potassium acetate, 72 h, 28 °C, read-out: MIC
# [14] = Candida albicans, ATCC10231, Table 1: growth of C. albicans ATCC10231, read-out: MIC
# [15] = Candida albicans, ATCC10231, Table 1: growth of C. albicans ATCC10231
# [16] = YNB with 2% glucose, read-out: MIC
# [17] = YNB with 2% potassium acetate, read-out: MIC
compound,measurement,setting,value
"COc1ccc(C(=O)O[C@H]2C=COC=C3[C@@H](O)[C@]45SSSS[C@H](C(=O)N4[C@@H]32)N(C)C5=O)cc1Oc1cc(C=O)ccc1O [Secoemestrin C (1), secoemestrin C]",reversibility of binding to the enzyme,[1]; enzyme activity not recovered by dialysis within 1 h,irreversible
same,ICL inhibition mechanism,"[1]; kinetic analysis, Lineweaver–Burk plot",uncompetitive inhibitor
same,IC50,[1],4.77 ± 0.08 µM
same,MIC,[2]; [10],> 128 µg/mL
same,MIC,[2]; [11],64 µg/mL
same,MIC,"[2]; YNB with 2% glucose, 72 h",>128 µg/mL
same,MIC,[3]; [12],> 128 µg/mL
same,MIC,[3]; [13],64 µg/mL
same,MIC,[3]; [14],> 128 µg/mL
same,MIC,[4]; YNB with 2% glucose,> 128 µg/mL
same,MIC,[4]; YNB with 2% potassium acetate,32 µg/mL
same,MIC,[5]; YNB with 2% glucose,> 128 µg/mL
same,MIC,[5]; YNB with 2% potassium acetate,64 µg/mL
same,MIC,[6]; YNB with 2% glucose,> 128 µg/mL
same,MIC,[6]; YNB with 2% potassium acetate,64 µg/mL
same,MIC,[7],32 to 64 µg/mL
same,growth phenotype,"[8]; 2% glucose plus 64 μg/mL compound, all strains",normal phenotypes
same,growth phenotype,[8]; 2% potassium acetate plus 64 μg/mL compound,failed to grow; also recorded: no growth
same,intensity of the PCR band corresponding to the ICL product (ICL mRNA),[9],decreased
"O=C(O)CC[N+](=O)[O-] [3-Nitropropionate, 3-nitropropionate, reference compound]",IC50,[1],21.8 ± 1.38 µM
same,MIC,[3]; Table 1: growth of C. albicans ATCC10231,>128 µg/mL
"COc1ccc2cc1Oc1cc(ccc1O)C(O)C13SSSC4(C(=O)N1C)C(O)C1=COC=CC(OC2=O)C1N4C3=O (stereo not drawn) [Emestrin B (4), emestrin B]",inhibitory activity toward ICL (in words),[1],no inhibitory activity; also recorded: not inhibitors of ICL
same,IC50,[1],> 203 µM
same,MIC,[2]; [10],> 128 µg/mL
same,MIC,[3]; [15],> 128 µg/mL
"C[C@@H]1[C@H](O)[C@@H](C)/C=C/C=C/C=C/C=C/C=C/C=C/C=C/[C@H](O[C@@H]2O[C@H](C)[C@@H](O)[C@H](N)[C@@H]2O)C[C@@H]2O[C@](O)(C[C@@H](O)C[C@@H](O)[C@H](O)CC[C@@H](O)C[C@@H](O)CC(=O)O[C@H]1C)C[C@H](O)[C@H]2C(=O)O [Amphotericin B, amphotericin B, reference compound]",MIC,[2]; [10],0.5 µg/mL
same,MIC,[2]; [11],0.5 µg/mL
same,MIC,[3]; [12],0.5 µg/mL
same,MIC,[3]; [13],0.5 µg/mL
same,MIC,[3]; [14],0.5 µg/mL
same,MIC,[4]; [16],1 µg/mL
same,MIC,[4]; [17],0.5 µg/mL
same,MIC,[5]; [16],0.5 µg/mL
same,MIC,[5]; [17],0.5 µg/mL
same,MIC,[6]; [16],1 µg/mL
same,MIC,[6]; [17],1 µg/mL
"COc1ccc(C(=O)O[C@H]2C=COC=C3C=C4C(=O)N(C)C(=O)C(=O)N4[C@@H]32)cc1Oc1cc(C=O)ccc1O [Dethiosecoemestrin (2), dethiosecoemestrin]",inhibitory activity toward ICL (in words),[1],no inhibitory activity
same,IC50,[1],> 241 µM
same,MIC,[2]; [10],> 128 µg/mL
same,MIC,[3]; [14],> 128 µg/mL
"COc1ccc2cc1Oc1cc(ccc1O)C(O)C13SSC4(C(=O)N1C)C(O)C1=COC=CC(OC2=O)C1N4C3=O (stereo not drawn) [Emestrin (3), emestrin]",inhibitory activity toward ICL (in words),[1],not inhibitors of ICL
same,inhibitory activity toward ICL (in words),[1]; listed as emestrin (3),no inhibitory activity
same,IC50,[1],> 214 µM
same,MIC,[2]; [10],> 128 µg/mL
same,MIC,[3]; [15],> 128 µg/mL
